Source: patent publication US20250041294A1, “Synergistic compositions for use in the treatment of cancer” (Sartar Therapeutics Oy, priority 2021, published 2025)
Like-named read-outs stand apart in the source and are kept apart here.

Legend:
Format in all cases: cell-based
[1] = tested on: GIST882 cell line; experiment: High throughput drug sensitivity and resistance test (CellTiter-Glo, 72 hours); conditions: drug combined with BAY2666605 (40 nM) minus drug alone
Method: High throughput drug sensitivity and resistance test. […] In addition, same compounds were investigated together with anagrelide hydrochloride (100 nM) treatment in the PDE3A low expressing cell lines SA4 and GOT3, and with BAY2666605 (40 nM) in all PDE3A-positive cell lines GIST882, SA4 and GOT3. […] A cell viability was measured after 72 hours using CellTiter-Glo Cell Viability assay (Promega Inc.) and PHERAstar FS plate reader (BMG Labtech). The data were normalized to negative (0.01% dimethyl sulfoxide only) and positive (100 μmol/L benzethonium chloride) controls.
(§1) A four-parameter logistic dose-response curves were estimated by using the Marquardt-Levenberg algorithm and Breeze analysis platform. Drug responses to the test compounds were measured using the drug sensitivity score (DSS). Drug synergy partners, which were common in investigated cell lines were identified as following: DSS value of a single agent was subtracted from the DSS value of anagrelide-drug combination in single cell lines. […] The analysis was repeated by using BAY2666605 as a PDE3A modulator.

[2] = tested on: GIST882, GOT3 and SA4 cell lines; experiment: High throughput drug sensitivity and resistance test, average over cell lines (BAY2666605 combination); conditions: for Average DSS (aDSS): BAY2666605 combination, average of GIST882, SA4 and GOT3, aDSS higher than 3.0 = synergy
Method: (§2) Cell lines. PDE3A-positive (GIST882, SA4, and GOT3) and PDE3A-negative cell lines (93TT449, 94T778, LPS141, MLS17656-92, MLS402-91, and SW872) were cultured in RPMI Medium 1640 (Gibco) with 5-, 10- or 20% fetal bovine serum (FBS, gibco), 100 U/mL of penicillin, 100 […] and 0.03 mg/mL of L-glutamine (Pen Strep Glut, Gibco, 10378-016) in a humidified, 5% CO2 atmosphere at 37° C.
(§3) High throughput drug sensitivity and resistance test. A sensitivity and resistance of cancer cell lines to 528 compounds were investigated in 9 cell lines (GIST882, SA4, GOT3, 93TT449, 94T778, LPS141, MLS17656-92, MLS402-91, and SW872). In addition, same compounds were investigated together with anagrelide hydrochloride (100 nM) treatment in the PDE3A low expressing cell lines SA4 and GOT3, and with BAY2666605 (40 nM) in all PDE3A-positive cell lines GIST882, SA4 and GOT3. The compounds were dissolved in 100% dimethyl sulfoxide or water and plated in 10-fold dilutions covering a 10,000-fold concentration range on flat clear bottom 384-well microplates as described in detail earlier (Pulkka O P, et al 2019). A cell viability was measured after 72 hours using CellTiter-Glo Cell Viability assay (Promega Inc.) and PHERAstar FS plate reader (BMG Labtech). The data were normalized to negative (0.01% dimethyl sulfoxide only) and positive (100 μmol/L benzethonium chloride) controls.
as §1

[3] = tested on: SA4 cell line; experiment: High throughput drug sensitivity and resistance test (CellTiter-Glo, 72 hours); conditions: SA4; for SA4 cell line: DSS(combo (BAY2666605))-DSS(drug): drug combined with BAY2666605 (40 nM) minus drug alone; for SA4 cell line: DSS(combo (anagrelide))-DSS(drug): drug combined with anagrelide hydrochloride (100 nM) minus drug alone
Method: as §2, §3, §1

[4] = tested on: GOT3 cell line; experiment: as above; conditions: GOT3; for GOT3 cell line: DSS(combo (BAY2666605))-DSS(drug): drug combined with BAY2666605 (40 nM) minus drug alone; for GOT3 cell line: DSS(combo (anagrelide))-DSS(drug): drug combined with anagrelide hydrochloride (100 nM) minus drug alone
Method: as §2, §3, §1

[5] = tested on: GOT3 and SA4 cell lines; experiment: High throughput drug sensitivity and resistance test, average over cell lines (anagrelide combination); conditions: anagrelide combination, average of SA4 and GOT3; aDSS higher than 3.0 = synergy
Method: as §2, §3, §1

[6] = with anagrelide (GOT3, SA4) or BAY2666605 (GIST882, GOT3, SA4)

SMILES: COc1ncc(-c2ccc3nccc(-c4ccnnc4)c3c2)cc1NS(=O)(=O)c1ccc(F)cc1F [Omipalisib, omipalisib]
- GIST882 cell line: DSS(combo (BAY2666605))-DSS(drug) [1]: 7.4
- Average DSS (aDSS) [2]: 4.5
- synergy in high-throughput screening (in words) [2, 6]: synergistic
- SA4 cell line: DSS(combo (BAY2666605))-DSS(drug) [3]: 6.5
- GOT3 cell line: DSS(combo (BAY2666605))-DSS(drug) [4]: −0.4

SMILES: Cc1[nH]c2ccccc2c1CCNCc1ccc(/C=C/C(=O)NO)cc1 [Panobinostat, panobinostat]
- GIST882 cell line: DSS(combo (BAY2666605))-DSS(drug) [1]: 6.1
- Average DSS (aDSS) [5]: 5.6
- Average DSS (aDSS) [2]: 7.0
- SA4 cell line: DSS(combo (BAY2666605))-DSS(drug) [3]: 6.7
- SA4 cell line: DSS(combo (anagrelide))-DSS(drug) [3]: 11.7
- GOT3 cell line: DSS(combo (BAY2666605))-DSS(drug) [4]: 8.2
- GOT3 cell line: DSS(combo (anagrelide))-DSS(drug) [4]: −0.5

SMILES: CC(C)N(C[C@H]1O[C@@H](n2cnc3c(N)ncnc32)[C@H](O)[C@@H]1O)[C@H]1C[C@@H](CCc2nc3cc(C(C)(C)C)ccc3[nH]2)C1 [Pinometostat, pinometostat]
- GIST882 cell line: DSS(combo (BAY2666605))-DSS(drug) [1]: 3.9
- Average DSS (aDSS) [2]: 4.6
- synergy in high-throughput screening (in words) [2, 6]: synergistic
- SA4 cell line: DSS(combo (BAY2666605))-DSS(drug) [3]: 9.8
- GOT3 cell line: DSS(combo (BAY2666605))-DSS(drug) [4]: 0

SMILES: CCCCc1nc2cc(/C=C/C(=O)NO)ccc2n1CCN(CC)CC [Pracinostat, pracinostat]
- GIST882 cell line: DSS(combo (BAY2666605))-DSS(drug) [1]: 5.7
- Average DSS (aDSS) [5]: 6.7
- Average DSS (aDSS) [2]: 6.4
- synergy in high-throughput screening (in words) [2, 6]: synergistic
- SA4 cell line: DSS(combo (BAY2666605))-DSS(drug) [3]: 12
- SA4 cell line: DSS(combo (anagrelide))-DSS(drug) [3]: 14.8
- GOT3 cell line: DSS(combo (BAY2666605))-DSS(drug) [4]: 1.5
- GOT3 cell line: DSS(combo (anagrelide))-DSS(drug) [4]: −1.4

SMILES: CN(C)Cc1ccc(S(=O)(=O)n2ccc(/C=C/C(=O)NO)c2)cc1 [Resminostat, resminostat]
- GIST882 cell line: DSS(combo (BAY2666605))-DSS(drug) [1]: 3.1
- Average DSS (aDSS) [5]: 6.7
- Average DSS (aDSS) [2]: 6.0
- synergy in high-throughput screening (in words) [2, 6]: synergistic
- SA4 cell line: DSS(combo (BAY2666605))-DSS(drug) [3]: 11.7
- SA4 cell line: DSS(combo (anagrelide))-DSS(drug) [3]: 13.5
- GOT3 cell line: DSS(combo (BAY2666605))-DSS(drug) [4]: 3.1
- GOT3 cell line: DSS(combo (anagrelide))-DSS(drug) [4]: −0.1

SMILES: CO[C@H]1C[C@@H]2CC[C@@H](C)[C@@](O)(O2)C(=O)C(=O)N2CCCC[C@H]2C(=O)O[C@H]([C@H](C)C[C@@H]2CC[C@@H](OP(C)(C)=O)[C@H](OC)C2)CC(=O)[C@H](C)/C=C(\C)[C@@H](O)[C@@H](OC)C(=O)[C@H](C)C[C@H](C)/C=C/C=C/C=C/1C [Ridaforolimus, ridaforolimus]
- GIST882 cell line: DSS(combo (BAY2666605))-DSS(drug) [1]: 0.3
- Average DSS (aDSS) [5]: 8.8
- SA4 cell line: DSS(combo (BAY2666605))-DSS(drug) [3]: 13.7
- SA4 cell line: DSS(combo (anagrelide))-DSS(drug) [3]: 13.2
- GOT3 cell line: DSS(combo (BAY2666605))-DSS(drug) [4]: −1.9
- GOT3 cell line: DSS(combo (anagrelide))-DSS(drug) [4]: 4.4

SMILES: O=C(CCCCCCNC(=O)c1cnc(N(c2ccccc2)c2ccccc2)nc1)NO [Rocilinostat, rocilinostat]
- GIST882 cell line: DSS(combo (BAY2666605))-DSS(drug) [1]: 1.4
- synergy in high-throughput screening (in words) [2]: synergistic
- Average DSS (aDSS) [2]: 3.3
- SA4 cell line: DSS(combo (BAY2666605))-DSS(drug) [3]: 7.5
- GOT3 cell line: DSS(combo (BAY2666605))-DSS(drug) [4]: 0.9

SMILES: O=C(/C=C\n1cnc(-c2cc(C(F)(F)F)cc(C(F)(F)F)c2)n1)NNc1cnccn1 [Selinexor]
- GIST882 cell line: DSS(combo (BAY2666605))-DSS(drug) [1]: 7.9
- Average DSS (aDSS) [2]: 4.2
- synergy in high-throughput screening (in words) [2, 6]: synergistic
- SA4 cell line: DSS(combo (BAY2666605))-DSS(drug) [3]: 5.4
- GOT3 cell line: DSS(combo (BAY2666605))-DSS(drug) [4]: −0.7

SMILES: Cn1nnc2c(C(N)=O)ncn2c1=O [Temozolomide, temozolomide]
- GIST882 cell line: DSS(combo (BAY2666605))-DSS(drug) [1]: 5.4
- Average DSS (aDSS) [2]: 4.2
- SA4 cell line: DSS(combo (BAY2666605))-DSS(drug) [3]: 5.2
- GOT3 cell line: DSS(combo (BAY2666605))-DSS(drug) [4]: 1.9

SMILES: CN1CCc2c(c3ccccc3n2Cc2ccc(C(=O)NO)cc2)C1 [Tubastatin A, tubastatin A]
- GIST882 cell line: DSS(combo (BAY2666605))-DSS(drug) [1]: −0.3
- Average DSS (aDSS) [2]: 4.4
- synergy in high-throughput screening (in words) [2, 6]: synergistic
- SA4 cell line: DSS(combo (BAY2666605))-DSS(drug) [3]: 10.7
- GOT3 cell line: DSS(combo (BAY2666605))-DSS(drug) [4]: 2.8
